# Experimental data as given in patent publication US20160045487A1, “COMPOSITIONS AND METHODS FOR TREATING NEUROPATHY” (CHILDEREN'S MEDICAL CENTER CORPORATION, priority 2013, published 2016).
# Experiments:
# [1] = test system: GFAP-DN-erbB4 mice; experiment: Hot plate (54° C.) thermal nociception test, GFAP-DN-erbB4 small fiber neuropathy model; assay type: in vivo, mouse
# Experimental: (§1) As a first test, a cream containing XIB4035 (1.5 mM) was applied directly to the hind paws of GFAP-DN-erbB4 and wild type mice twice daily for a period of 4 weeks starting prior to symptom onset (P21). Mice of both genotypes were also treated with the base cream containing no drug for control. Mice were tested for responses to a noxious thermal stimulus prior to the initiation of treatment and every 7 days for the duration of the experiment.
# However, in the clinic, therapy would almost certainly begin after patients present with symptoms of SFN. Therefore, it was determined whether topical XIB4035 can act as a disease-modifying agent in the GFAP-DN-erbB4 neuropathy model starting after animals are clearly symptomatic (P28). […] While IB4 labeling in mutant mice was lower than wild types regardless of treatment, IB4 signal was clearly present in mutant mice treated with XIB4035 while absent in those treated with control cream (FIG. 3D; 83% of XIB4035 treated mice (n=6) with IB4+ lamina II terminals vs 0% (n=4) in control treated mice) (FIG. 3D).
# Transgenic mouse lines used were as previously described (Lacomis et al., Muscle Nerve 26, 173-188 (2002); Comblath et al., Current opinion in Neurology 19, 446-450 (2006)). Animals were kept in the animal facility with free access to food and water. Behavioral experiments were performed in a quiet environment at the same time of day. The hot plate test was performed using a “controlled hot-plate analgesia meter” (Columbus Instruments) heated to 54° C. Paw withdrawal latency was measured as the time required for the mouse to visibly respond to the thermal stimulus, e.g. licking paws, shaking paws, or jumping off of the plate.
# The cream containing XIB4035 (1.5 mM, ZereneX Molecular Ltd., Manchester, UK) consisted of N-methyl-pyrrolidone (6.25%), isopropyl myristate (6.25%) and petroleum jelly (87.5%). Control cream had the same ingredients without XIB4035. Cream was applied twice daily to the hind paws of mice starting at P21 for a period of 4 weeks for prophylactic treatment of GFAP-DN-erbB4. […]
# [2] = test system: wild type mice; experiment: Hot plate thermal nociception test in wild type mice; assay type: in vivo, mouse; conditions: cream 1.5 mM, 51° C. hotplate, P28-P42
# Experimental: Thermal nociceptive responses in wild type mice treated with either control or XIB4035 (1.5 mM) containing cream were compared using the hotplate test (51° C.) beginning at four weeks of age (p28) and continued to six weeks of age (P42).
# as §1
# Transgenic mouse lines used were as previously described (Lacomis et al., Muscle Nerve 26, 173-188 (2002); Comblath et al., Current opinion in Neurology 19, 446-450 (2006)). Animals were kept in the animal facility with free access to food and water. Behavioral experiments were performed in a quiet environment at the same time of day. The hot plate test was performed using a “controlled hot-plate analgesia meter” (Columbus Instruments) heated to 54° C. Paw withdrawal latency was measured as the time required for the mouse to visibly respond to the thermal stimulus, e.g. licking paws, shaking paws, or jumping off of the plate. […]
# [3] = target: T1, GFRα3/RET (UniProt O60609+P35546); experiment: RET phosphorylation in N2A cells transfected with GFRα3; assay type: cell-based, human GFRα3 in murine N2A cells
# T1 construct: N2A cells (which express RET) transfected with GFRα1 or GFRα3 expression constructs; expressed in transfected cells; host or cells: Neuro2A (N2A) cells; GFRα3 plasmid was a gift from Dr. Milbrandt; RET is endogenous
# Experimental: Since the original report argued that XIB4035 displaces GDNF binding to GFRα1 expressing cells (FIG. 2 in Tokugawa et al., Neurochem Int 42, 81-86 (2003).), potentially ARTN, on TH-luciferase activity and Ret phosphorylation. […] In this experiment, cells were treated with GDNF or ARTN with or without XIB4035 for 10 minutes and cell lysates were either collected immediately or treatment was washed out and replaced with growth media for 30, 60, or 120 minutes. […] Therefore, we tested cells expressing only one GFRα using either N2A cells (which express RET) transfected with GFRα1 or GFRα3 expression constructs, or B(E)2-C cells, which express only GFRα2 together with RET. […] The GFRα1 or GFRα3 transfected N2A cells were then treated with XIB4035 alone, the appropriate ligand for the expressed receptor alone, or XIB4035 and ligand in combination for 10 minutes, and collected lysates immediately after treatment or 60 minutes after washout. […] Similar results were obtained with GFRα2 and NRTN using B(E)2-C cells (FIG. 8). Thus, XIB4035 is a positive modulator of signaling by GDNF family ligands and their receptors, not an agonist for GFRα1 as previously reported.
# For phosphorylated Ret immunoblot experiments, cells were treated with various combinations of molecules for 10 minutes and either collected immediately or had treatment washed out and returned to control treatment media for the times indicated prior to cell collection. Lysates were collected in buffer containing: 50 mM Tris-HCL, 1% TX-100, 0.25% Deoxycholic acid, 150 mM sodium chloride, 1 mM EDTA, 0.1 mM sodium fluoride, 0.1 mM sodium pyrophosphate, 0.02 mM sodium orthovanadate, and protease inhibitors Immunoblots were blocked in 5% bovine serum albumin in tris-buffered saline+0.2% Tween 20+0.1 mM sodium fluoride, 0.1 mM sodium pyrophosphate, and 0.02 mM sodium orthovanadate and probed in blocking solution using anti-phospotyrosine (4G10) mouse monoclonal antibody (1:2000; EMD Milipore Corp., Billerica, Mass.). […]
# [4] = test system: diabetic mice (STZ model); experiment: Sub-epidermal neural plexus density in papillary dermis of STZ diabetic mice; assay type: in vivo, mouse; conditions: cream from hyperglycemia for 16 weeks
# Experimental: To examine SNP, normo-glycemic or diabetic mice (STZ model) were treated with either vehicle cream of cream containing XIB4035 from the moment they became hyperglycemic, for 16 weeks. At the end of this treatment period, the density of sub-epidermal fibers in papillary dermis was measured in papillary dermis. It was thereby identified that sub-epidermal neural plexus (SNP) density was reduced in diabetic mice not administered XIB, but was preserved in diabetic mice that had received XIB4035 treatment (FIG. 10).
# Adult female C57 Bl/6J mice were made diabetic (blood glucose >15 mmol/L) by injection of STZ (90 mg/kg i.p.) on two consecutive days, with confirmation of hyperglycemia made 7 days after STZ delivery. Paw thermal response latency of the right paw was measured every two weeks from weeks 8-16 of diabetes using a modified Hargeaves test, as described
# T1 sequence (O60609 32-374 limits assumed): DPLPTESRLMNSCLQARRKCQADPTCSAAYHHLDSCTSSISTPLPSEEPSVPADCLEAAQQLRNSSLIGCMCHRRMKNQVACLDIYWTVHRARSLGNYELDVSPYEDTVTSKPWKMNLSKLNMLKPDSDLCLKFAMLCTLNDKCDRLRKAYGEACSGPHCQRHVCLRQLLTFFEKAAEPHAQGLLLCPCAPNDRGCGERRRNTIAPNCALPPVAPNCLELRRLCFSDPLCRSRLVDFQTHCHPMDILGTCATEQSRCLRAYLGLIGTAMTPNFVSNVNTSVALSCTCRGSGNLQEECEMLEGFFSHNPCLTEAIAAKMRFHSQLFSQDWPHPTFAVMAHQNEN
# T1 sequence (P35546 29-1115): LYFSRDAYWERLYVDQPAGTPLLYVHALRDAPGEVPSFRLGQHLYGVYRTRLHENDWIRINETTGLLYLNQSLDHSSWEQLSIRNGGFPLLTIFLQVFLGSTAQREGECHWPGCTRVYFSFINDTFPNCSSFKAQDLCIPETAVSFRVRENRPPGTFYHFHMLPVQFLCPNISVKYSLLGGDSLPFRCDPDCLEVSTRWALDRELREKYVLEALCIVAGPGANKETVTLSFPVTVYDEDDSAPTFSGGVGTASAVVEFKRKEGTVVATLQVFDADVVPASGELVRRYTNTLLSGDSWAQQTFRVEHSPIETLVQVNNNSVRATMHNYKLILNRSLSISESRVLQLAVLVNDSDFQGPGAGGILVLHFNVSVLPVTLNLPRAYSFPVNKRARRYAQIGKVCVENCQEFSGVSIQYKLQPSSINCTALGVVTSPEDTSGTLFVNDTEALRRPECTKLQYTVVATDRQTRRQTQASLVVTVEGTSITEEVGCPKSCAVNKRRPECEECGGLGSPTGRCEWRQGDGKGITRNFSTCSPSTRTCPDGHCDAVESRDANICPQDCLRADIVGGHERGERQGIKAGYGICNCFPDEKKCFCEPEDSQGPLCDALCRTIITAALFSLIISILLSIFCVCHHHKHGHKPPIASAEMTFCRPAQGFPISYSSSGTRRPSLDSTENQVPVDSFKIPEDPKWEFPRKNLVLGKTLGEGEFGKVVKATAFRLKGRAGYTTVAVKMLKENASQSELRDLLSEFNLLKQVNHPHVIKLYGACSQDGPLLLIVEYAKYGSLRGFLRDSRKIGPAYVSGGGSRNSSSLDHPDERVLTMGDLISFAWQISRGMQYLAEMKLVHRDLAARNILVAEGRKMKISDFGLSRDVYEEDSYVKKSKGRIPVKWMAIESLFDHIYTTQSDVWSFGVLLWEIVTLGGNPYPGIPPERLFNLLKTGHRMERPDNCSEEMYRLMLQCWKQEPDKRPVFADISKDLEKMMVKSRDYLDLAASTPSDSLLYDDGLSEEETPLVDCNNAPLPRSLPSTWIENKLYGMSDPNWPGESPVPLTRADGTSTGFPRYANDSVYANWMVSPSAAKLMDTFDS
structure (smiles),measurement,setting,value
"CCN(CC)CCCC(C)Nc1cc(/C=C/c2ccccc2Cl)nc2cc(Cl)ccc12 (stereo not shown) [XIB4035, N4-{7-chloro-2-[(E)-2-(2-chloro-phenyl)-vinyl]-quinolin-4-yl}-N1,N1-diethyl-pentane-1,4-diamine]",reaction times to noxious thermal stimulus (thermal nociception),"[1]; prophylactic, cream 1.5 mM on hind paws twice daily, 4 weeks from P21, 54° C. hot plate",indistinguishable from wild type animals
same,neuropathic symptoms (thermal nociception),"[1]; therapeutic, treatment started after onset (P28), read one week later (P35), persisted with continued treatment",significant reduction in symptoms
same,neuropathic symptoms after interruption of treatment,"[1]; treatment initiated at P28, interrupted at P35",neuropathic symptoms reappeared one week later
same,thermal hyperalgesia,[2],did not induce thermal hyperalgesia
same,induction of RET phosphorylation,"[3]; XIB4035 alone, 10 minutes",did not induce RET phosphorylation
same,RET phosphorylation at the 60 min time-point compared to ligand alone,"[3]; XIB4035 and ligand co-treatment, 60 minutes after washout",clearly prolonged
same,sub-epidermal neural plexus (SNP) density,[4],preserved
